Test results published in patent publication US12569434B2, “Formulations of Nebivolol” (EXTROVIS AG, priority 2020, dated 2026).

How the values were obtained:
[1] = type: physicochemical; conditions: open air exposure, 50° C. for 2 Weeks and 40° C./7.5% RH for 1 month
Protocol: Drug-Excipient compatibility study was carried with excipients such as mannitol, maltitol, dextrates, povidone, methyl paraben, propyl paraben, citric acid, sodium citrate, sodium saccharin. The study was carried out in clear glass vials with open air exposure at stress conditions 50° C. for 2 Weeks and 40° C./[…] (relative humidity) for 1 month.

[2] = type: physicochemical; conditions: solution in propylene glycol, pH 3 to 7, 50° C. for 1M and 40° C./75% RH for 6M
Protocol: To evaluate the stability of Nebivolol in suitable liquid vehicle or solubilizer at different pH conditions, pH stability study was performed using 0.1N HCL/0.1N NaOH for pH adjustment. Propylene glycol was used as solubilizer to dissolve Nebivolol to prepare the stock solution. The stock solution was added to water and adjusted the pH with 0.1N HCL/0.1N NaOH at different pH ranging from 3 to 7.

## Cl.OC(CNCC(O)C1CCc2cc(F)ccc2O1)C1CCc2cc(F)ccc2O1 (racemic) [Nebivolol HCl, (1RS,1′RS)-1,1′-[(2RS,2′SR)-bis(6-fluoro-3,4-dihydro-2H-1-benzopyran-2-yl)]-2,2′-iminodiethanol hydrochloride]
[1]
  Stability of Nebivolol with excipients: stable
  desfluoro impurity: within the specification limits
[2]
  Stability of Nebivolol: stable
  desfluoro Nebivolol impurity: within the specification limits
